Source: US12410133B2, “Crystalline (r)-5-carbamoylpyridin-3-yl-2-methyl-4-(3-(trifluoromethoxy)benzyl)piperazine-1-carboxylate, compositions and methods of use thereof” (Celgene Corporation, priority 2018, dated 2025)
In brackets after ≈: the same amount, converted by molar mass. Marks after values point to notes of the source that are not given here.

Key:
Format in all cases: physicochemical
[1] = 2-hrs equilibrium solubility in FaSSIF and FeSSIF (version 2); conditions: thermodynamic from solid
Description: (§1) A summary of baseline solid state characterization results of crystalline (R)-5-carbamoylpyridin-3-yl-2-methyl-4-(3-(trifluoromethoxy)benzyl)piperazine-1-carboxylate Form A, including pKa, partition coefficient (log D7.4) measurement and 2-hrs equilibrium solubility in FaSSIF and FeSSIF (version 2) are provided herein. […] Log D7.4 was measured with the solvent system of pH 7.4 phosphate buffer and n-octanol by shake-flask method. Meanwhile, 2-hrs equilibrium solubility of (R)-5-carbamoylpyridin-3-yl-2-methyl-4-(3-(trifluoromethoxy)benzyl)piperazine-1-carboxylate in FaSSIF and FeSSIF (version 2) was measured to be 0.12 and 0.080 mg/mL.

[2] = Accelerated solid-state stability study of Form A
Description: Solid-state stability evaluation (accelerated conditions) was performed on Form A under conditions of 25° C./60% RH and 40° C./75% RH. The detailed procedure utilized for stability evaluation is listed below:
1) weigh approximately 30 mg of Form A sample into each 3-mL vial;
2) cover the vial with Parafilm® and poke 15 holes on the Parafilm® with a needle;
3) put the vial in a stability chamber of 25° C./60% RH or 40° C./75% RH; and
4) sample for XRPD, TGA, DSC, HPLC purity and assay tests after 2, 4 and 6 weeks and 3 months.

[3] = Interconversion study: competitive slurry of Form A and B; conditions: from RT to 50° C.
Description: An interconversion study of crystal forms was performed. To understand the thermodynamic stability relationship between Form A and B, competitive slurry experiments were performed at RT and 50° C. in water and toluene. Prior to the study, Form A was used to saturate the corresponding solvent before it was filtered to obtain a near-saturated solution. Equal amounts of Form A and B samples were weighed and then mixed with the prepared near-saturated solution to form a new suspension, which was stirred magnetically (˜1000 rpm) at RT and 50° C.

[4] = Form A solubility study in FaSSIF-v2 and FeSSIF-v2 at 37° C.; conditions: for solubility at 2 h / solubility at 24 h / Final Form: 37° C.; for Final Form: residual solid by XRPD
Description: Solubility was evaluated at 2 hr and 24 hr for Form A in FaSSIF-v2 and FeSSIF-v2 at 37° C. Approximately 40 mg of Form A sample was added in 2.0 mL of corresponding bio-medium to form a suspension, followed by shaking at 500 rpm at 37° C. After 2 hr and 24 hr, the supernatants were isolated by centrifugation (7000 rpm for 5 min) followed by filtration through […] PTFE membrane and were tested by HPLC concentration and pH. The residual solids were characterized by XRPD.

[5] = Log D7.4 by shake-flask method (pH 7.4 phosphate buffer and n-octanol); conditions: n-octanol/pH 7.4 phosphate buffer
Description: as §1

C[C@@H]1CN(Cc2cccc(OC(F)(F)F)c2)CCN1C(=O)Oc1cncc(C(N)=O)c1 [Form A, (R)-5-carbamoylpyridin-3-yl-2-methyl-4-(3-(trifluoromethoxy)benzyl)piperazine-1-carboxylate]
solubility thermodynamic at 2 h ([1]; FaSSIF (version 2), fassif): 120 µg/mL (≈ 274 µM) | solubility thermodynamic at 2 h ([1]; FeSSIF (version 2), fessif): 80 µg/mL (≈ 182 µM) | API (RRT 1.00) ([2]; 2 weeks, 25° C./60% RH): 99.84 % Area | Assay vs. 5° C. control ([2]; 2 weeks, 25° C./60% RH): 101.2% | Crystal form ([2]; 2 weeks, 25° C./60% RH): Form A | HPLC Purity ([2]; 2 weeks, 25° C./60% RH): 99.84 area % | Imp.1 (RRT 0.81) ([2]; 2 weeks, 25° C./60% RH): 0.07 % Area | Imp.2 (RRT 1.04) ([2]; 2 weeks, 25° C./60% RH): — (—: <0.05.) | Imp.3 (RRT 1.74) ([2]; 2 weeks, 25° C./60% RH): 0.09 % Area | API (RRT 1.00) ([2]; 2 weeks, 40° C./75% RH): 99.78 % Area | Assay vs. 5° C. control ([2]; 2 weeks, 40° C./75% RH): 98.1% | Crystal form ([2]; 2 weeks, 40° C./75% RH): Form A | HPLC Purity ([2]; 2 weeks, 40° C./75% RH): 99.78 area % | Imp.1 (RRT 0.81) ([2]; 2 weeks, 40° C./75% RH): 0.08 % Area | Imp.2 (RRT 1.04) ([2]; 2 weeks, 40° C./75% RH): 0.07 % Area | Imp.3 (RRT 1.74) ([2]; 2 weeks, 40° C./75% RH): 0.07 % Area | API (RRT 1.00) ([2]; 3 months, 25° C./60% RH): 99.86 % Area | Assay vs. 5° C. control ([2]; 3 months, 25° C./60% RH): 97.3% | Chiral Purity ([2]; 3 months, 25° C./60% RH): 100 | Crystal form ([2]; 3 months, 25° C./60% RH): Form A | HPLC Purity ([2]; 3 months, 25° C./60% RH): 99.86 area % | Imp.1 (RRT 0.81) ([2]; 3 months, 25° C./60% RH): 0.09 % Area | Imp.3 (RRT 1.74) ([2]; 3 months, 25° C./60% RH): 0.05 % Area | API (RRT 1.00) ([2]; 3 months, 40° C./75% RH): 99.86 % Area | Assay vs. 5° C. control ([2]; 3 months, 40° C./75% RH): 96.9% | Chiral Purity ([2]; 3 months, 40° C./75% RH): 100 | Crystal form ([2]; 3 months, 40° C./75% RH): Form A | HPLC Purity ([2]; 3 months, 40° C./75% RH): 99.86 area % | Imp.1 (RRT 0.81) ([2]; 3 months, 40° C./75% RH): 0.09 % Area | Imp.3 (RRT 1.74) ([2]; 3 months, 40° C./75% RH): 0.05 % Area | API (RRT 1.00) ([2]; 4 weeks, 25° C./60% RH): 99.86 % Area | Assay vs. 5° C. control ([2]; 4 weeks, 25° C./60% RH): 101.4% | Crystal form ([2]; 4 weeks, 25° C./60% RH): Form A | HPLC Purity ([2]; 4 weeks, 25° C./60% RH): 99.86 area % | Imp.1 (RRT 0.81) ([2]; 4 weeks, 25° C./60% RH): 0.07 % Area | Imp.2 (RRT 1.04) ([2]; 4 weeks, 25° C./60% RH): — (—: <0.05.) | Imp.3 (RRT 1.74) ([2]; 4 weeks, 25° C./60% RH): 0.07 % Area | API (RRT 1.00) ([2]; 4 weeks, 40° C./75% RH): 99.86 % Area | Assay vs. 5° C. control ([2]; 4 weeks, 40° C./75% RH): 101.3% | Crystal form ([2]; 4 weeks, 40° C./75% RH): Form A | HPLC Purity ([2]; 4 weeks, 40° C./75% RH): 99.86 area % | Imp.1 (RRT 0.81) ([2]; 4 weeks, 40° C./75% RH): 0.07 % Area | Imp.2 (RRT 1.04) ([2]; 4 weeks, 40° C./75% RH): — (—: <0.05.) | Imp.3 (RRT 1.74) ([2]; 4 weeks, 40° C./75% RH): 0.07 % Area | API (RRT 1.00) ([2]; 6 weeks, 25° C./60% RH): 99.86 % Area | Assay vs. 5° C. control ([2]; 6 weeks, 25° C./60% RH): 99.7% | Crystal form ([2]; 6 weeks, 25° C./60% RH): Form A | HPLC Purity ([2]; 6 weeks, 25° C./60% RH): 99.86 area % | Imp.1 (RRT 0.81) ([2]; 6 weeks, 25° C./60% RH): 0.07 % Area | Imp.2 (RRT 1.04) ([2]; 6 weeks, 25° C./60% RH): — (—: <0.05.) | Imp.3 (RRT 1.74) ([2]; 6 weeks, 25° C./60% RH): 0.07 % Area | API (RRT 1.00) ([2]; 6 weeks, 40° C./75% RH): 99.86 % Area | Assay vs. 5° C. control ([2]; 6 weeks, 40° C./75% RH): 99.2% | Crystal form ([2]; 6 weeks, 40° C./75% RH): Form A | HPLC Purity ([2]; 6 weeks, 40° C./75% RH): 99.86 area % | Imp.1 (RRT 0.81) ([2]; 6 weeks, 40° C./75% RH): 0.07 % Area | Imp.2 (RRT 1.04) ([2]; 6 weeks, 40° C./75% RH): — (—: <0.05.) | Imp.3 (RRT 1.74) ([2]; 6 weeks, 40° C./75% RH): 0.07 % Area | Physical and chemical stability under accelerated conditions ([2]; 25° C./60% RH and 40° C./75% RH for 3 months): good physical and chemical stability | API (RRT 1.00) ([2]; Initial): 99.86 % Area | Crystal form ([2]; Initial): Form A | HPLC Purity ([2]; Initial): 99.86 area % | Imp.1 (RRT 0.81) ([2]; Initial): 0.09 % Area | Imp.2 (RRT 1.04) ([2]; Initial): — (—: <0.05.) | Imp.3 (RRT 1.74) ([2]; Initial): 0.05 % Area | Chiral Purity ([2]; Initial, starting material after stored at −20° C. for about 3 months): 100* | Form change or HPLC purity decrease ([2]; after 3 months at both conditions (25° C./60% RH and 40° C./75% RH)): no significant form change or HPLC purity decrease was observed | Thermodynamic stability relationship between Form A and B [3]: thermodynamically more stable than Form B | solubility at 2 h ([4]; FaSSIF-v2, thermodynamic from solid, FaSSIF (pH 6.5), 2 hr, final pH 6.5): 63 µg/mL (≈ 144 µM) | solubility at 24 h ([4]; FaSSIF-v2, thermodynamic from solid, FaSSIF (pH 6.5), 24 hr, final pH 6.6): 63 µg/mL (≈ 144 µM) | Form change after solubility evaluation (XRPD patterns) ([4]; FaSSIF-v2 and FeSSIF-v2, 37° C., 2 hr and 24 hr): no form change was observed | solubility at 2 h ([4]; FeSSIF-v2, thermodynamic from solid, FeSSIF (pH 5.8), 2 hr, final pH 5.9): 1000 µg/mL (≈ 2280 µM) | solubility at 24 h ([4]; FeSSIF-v2, thermodynamic from solid, FeSSIF (pH 5.8), 24 hr, final pH 6.0): 1100 µg/mL (≈ 2510 µM) | Final Form ([4]; FaSSIF (pH 6.5), 2 hr): Form A | Final Form ([4]; FaSSIF (pH 6.5), 24 hr): Form A | Final Form ([4]; FeSSIF (pH 5.8), 2 hr): Form A | Final Form ([4]; FeSSIF (pH 5.8), 24 hr): Form A | logD [5]: 3.76
